Data: ChEMBL document CHEMBL1129420 (J Med Chem, 1996)

Assay: Concentration for hnps- Phospholipase A2 was evaluated using radioligand [3H]arachidonate binding assay in Escherichia coli membranes
Assay type: cell membranes

IC50: 200 nM
SMILES: CCCCCCCCOCC(COP(=O)(O)OCCN)OP(=O)(O)CCCCCCC (stereo unspecified)
